{"source": "paper PMC6681348", "about": "(Biomolecules, 2019)", "molecules": {"B1": {"name": "ovomucoid inhibitor (chicken): chicken egg white trypsin inhibitor Type III-O, more than 200 amino acid residues, served as a contrast (protein, UniProt P01005 25-210, looked up)", "Ovomucoid": "AEVDCSRFPNATDKEGKDVLVCNKDLRPICGTDGVTYTNDCLLCAYSIEFGTNISKEHDGECKETVPMNCSSYANTTSEDGKVMVLCNRAFNPVCGTDGVTYDNECLLCAHKVEQGASVDKRHDGGCRKELAAVSVDCSEYPKPDCTAEDRPLCGSDNKTYGNKCNFCNAVVESNGTLTLSHFGKC"}}, "key": {"trypsin [1]": {"system": "trypsin", "test": "Trypsin inhibition assay", "assay_type": "biochemical", "details": "substrate Phe-Pro-Arg-AMC; for trypsin inhibitory activity (in words): 16 concentrations, duplicates", "protocol": "(§1) The inhibitory activity of peptides towards trypsin and chymotrypsin was tested the same as detailed in Wang’s study. Peptides were initially prepared in a range of 10^−3–10^−6 M and then diluted to 16 concentrations. Each dilution was tested in duplicates. Additionally, Phe-Pro-Arg-AMC and Succinyl-Ala-Ala-Pro-Phe-NHMec (obtained from Bachem, UK) were served as substrates for trypsin and chymotrypsin, respectively."}, "chymotrypsin": {"molecular_target": "chymotrypsin", "test": "Chymotrypsin inhibition assay", "assay_type": "biochemical", "details": "substrate Succinyl-Ala-Ala-Pro-Phe-NHMec, duplicates", "protocol": "as §1"}, "[2]": {"system": "Staphylococcus aureus (NCTC 10788)", "details": "MHB, broth dilution, 1-512 µM two-fold, 5 × 10^5 cfu/mL, seven replicates", "protocol": "(§2) Staphylococcus aureus (NCTC 10788), Escherichia coli (NCTC 10418), and Candida albicans (NCPF 1467) were applied in the antimicrobial test. They all were cultured in Mueller-Hinton Broth (MHB). […] Peptides were incubated with subcultured bacteria cells (5 × 10^5 cfu/mL) and each concentration was performed in seven replicates."}, "[3]": {"system": "Candida albicans (NCPF 1467)", "details": "MHB, broth dilution, 1-512 µM two-fold, 5 × 10^5 cfu/mL, seven replicates", "protocol": "as §2"}, "[4]": {"system": "Escherichia coli (NCTC 10418)", "details": "MHB, broth dilution, 1-512 µM two-fold, 5 × 10^5 cfu/mL, seven replicates", "protocol": "as §2"}, "horse red blood cells": {"system": "horse red blood cells", "details": "horse red blood cells 4% v/v, 37 °C, 2 h, concentrations up to 512 µM; 1% Triton X-100 = 100% haemolysis", "protocol": "As described in the previous study, a suspension of horse red blood cells (4%, v/v) (TCS Biosciences, Botolph Claydon, Buckingham, UK) was incubated with peptides of the concentration range of 1 µM to 512 µM at 37 °C for 2 h to determine the peptide haemolytic activity. The positive control employed 1% TritonX-100 (Sigma, UK)."}, "all tested microbes": {"system": "all tested microbes", "details": "single loop synthesized alone; cited from earlier work", "source_text": "The results just corresponded to the physicochemical properties of these two peptides."}, "trypsin [5]": {"system": "trypsin", "test": "trypsin cleavage", "details": "cited from earlier work"}, "trypsin [6]": {"system": "trypsin", "test": "trypsin cleavage assay", "details": "up to 20 min"}, "trypsin [7]": {"molecular_target": "trypsin", "details": "read-out: Ki, trypsin inhibition; cited from earlier work", "source_text": "Odorous frogs are distributed in East Asia and the surrounding areas, and they are named because of their smelly skin secretion, which plays a fundamental role in defensive systems. To date, hundreds of functional peptides have been isolated from Odorrana skin secretion, not only many potent antimicrobial peptides but also trypsin inhibitors. […] Combined with the data obtained from trypsin cleavage, each segment of both Kunitzin-OV and Kunitzin-RE was cleaved by trypsin via typical cleavage site Lys and Arg. […] Therefore, we assumed that the Lys close to the region of the protease-binding loop could act as a competitive position for trypsin activity ..."}}, "note": "Entries after “also recorded” stand apart in the source; their conditions may differ. Read-outs that look alike come from different tables or passages of the source. Positions of bridges follow the written chain, without caps; N, C: chain ends. Residues, ends and D or L forms follow the SMILES beside them. No end group written: not given here.", "data": [{"molecule": "CC(C)C[C@H](NC(=O)[C@H](C)N)C(=O)N[C@@H](CCCCN)C(=O)N[C@@H](Cc1ccc(O)cc1)C(=O)N1CCC[C@H]1C(=O)N[C@@H](Cc1ccccc1)C(=O)N[C@@H](CCCNC(=N)N)C(=O)N[C@H]1CSSC[C@@H](C(=O)O)NC(=O)[C@H](Cc2ccccc2)NC(=O)[C@H](C)NC(=O)[C@H](C)NC(=O)[C@H](Cc2ccccc2)NC1=O", "note": "[F^9-Kunitzin-OV] (H-ALKYPFRCFAAFC-OH; disulfide 8-13 (inferred); N-terminus and C-terminus assumed)", "values": [{"measurement": "trypsin inhibitory activity (in words)", "setting": "trypsin [1]", "result": "undetected; also recorded: disappeared; also recorded: vanished"}, {"measurement": "trypsin inhibitory activity (in words)", "setting": "trypsin [1]; listed as site-substituted analogue", "result": "eliminated"}, {"measurement": "Ki", "setting": "chymotrypsin; 16 concentrations from 10^-3-10^-6 M, Morrison plot, read-out: Ki, chymotrypsin inhibitory activity", "result": "11800 ± 2090", "unit": "nM"}, {"measurement": "chymotrypsin inhibitory activity (in words)", "setting": "chymotrypsin; 16 concentrations", "result": "optimized chymotrypsin inhibitory activity"}]}, {"molecule": "CC(C)C[C@H](NC(=O)[C@H](C)N)C(=O)N[C@@H](CCCCN)C(=O)N[C@@H](Cc1ccc(O)cc1)C(=O)N1CCC[C@H]1C(=O)N[C@@H](Cc1ccccc1)C(=O)N[C@@H](CCCNC(=N)N)C(=O)N[C@H]1CSSC[C@@H](C(=O)O)NC(=O)[C@H](Cc2ccccc2)NC(=O)[C@H](C)NC(=O)[C@H](C)NC(=O)[C@H](CCCCN)NC1=O", "note": "[Kunitzin-OV] (H-ALKYPFRCKAAFC-OH; disulfide 8-13)", "values": [{"measurement": "Minimum Inhibitory Concentration S. aureus", "setting": "[2]", "result": 512, "unit": "µM"}, {"measurement": "Minimum Inhibitory Concentration C. albicans", "setting": "[3]", "result": 512, "unit": "µM"}, {"measurement": "Minimum Inhibitory Concentration E. coli", "setting": "[4]", "result": 512, "unit": "µM"}, {"measurement": "haemolytic activity", "setting": "horse red blood cells", "result": "less than 10%"}]}, {"molecule": "-CKAAFC- (disulfide) [single disulfide loop of kunitzins synthesized alone by Chen and colleagues]", "values": [{"measurement": "antimicrobial activity (in words)", "setting": "all tested microbes", "result": "no activity was observed"}]}, {"molecule": "AAKIILNPKFRCKAAFC", "values": [{"measurement": "not cleaved", "setting": "trypsin [5]", "result": "this did not happen to Kunitzin-RE"}]}, {"molecule": "ALKYPFRCKAAFC", "values": [{"measurement": "fragment found", "setting": "trypsin [6]", "result": "ALKYPFR, first_seen, 0 min"}]}, {"molecule": "AVNIPFKVHFRCKAAFC (disulfide 12-17 (inferred)) [OGTI]", "values": [{"measurement": "Ki", "setting": "trypsin [7]", "result": 400, "unit": "nM"}]}, {"molecule": "B1", "values": [{"measurement": "trypsin inhibitory activity (in words)", "setting": "trypsin [1]", "result": "more potent inhibitory activity than Kunitzin-OV"}, {"measurement": "trypsin inhibitory activity (in words)", "setting": "trypsin [1]; listed as chicken egg white trypsin inhibitor Type III-O", "result": "faster and stronger inhibitory efficacy on trypsin than Kunitzin-OV"}, {"measurement": "Ki", "setting": "trypsin [1]; Morrison plot, contrast inhibitor", "result": "3.49 ± 0.505", "unit": "nM"}]}]}
